Consider two compounds from publication PMC5100001, “Defining the extreme substrate specificity of Euonymus alatus diacylglycerol acetyltransferase, an unusual membrane-bound O-acyltransferase” (Bioscience Reports, 2016).

Structures are written as SMILES.

The experiment addresses T1, EaDAcT (Euonymus alatus diacylglycerol acetyltransferase) (Euonymus alatus, UniProt D6NSS8).
T1 construct: gene DAcT; full-length ORF in microsomes of S. cerevisiae H1246 (quadruple knockout); C-terminal HA tag printed for the pESC-URA coexpression construct; N-terminus MDAHQEIK translated from printed primer
The experiment is described as follows: microsomal acyltransferase assay, ESI-MS quantification of sn-3 acyl TAG. Format: biochemical. Conditions: acyl donor 50 to 1500 uM, endogenous sn-1,2-DAG as acceptor, pH 7.5, 30 C.

T1 sequence (D6NSS8 entry or part of it): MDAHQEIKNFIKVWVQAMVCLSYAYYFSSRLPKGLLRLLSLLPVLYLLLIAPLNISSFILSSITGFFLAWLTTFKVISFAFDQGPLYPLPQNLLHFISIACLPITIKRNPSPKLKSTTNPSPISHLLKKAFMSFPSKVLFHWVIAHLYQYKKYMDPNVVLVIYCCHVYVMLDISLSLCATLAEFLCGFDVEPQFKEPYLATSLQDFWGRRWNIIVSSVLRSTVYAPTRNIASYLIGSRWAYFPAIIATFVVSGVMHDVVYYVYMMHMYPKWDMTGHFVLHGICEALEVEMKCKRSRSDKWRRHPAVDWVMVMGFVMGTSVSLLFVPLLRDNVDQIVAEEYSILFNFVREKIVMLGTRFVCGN

As to `CC(=O)SCCNC(=O)CCNC(=O)[C@H](O)C(C)(C)COP(=O)(O)OP(=O)(O)OC[C@H]1O[C@@H](n2cnc3c(N)ncnc32)[C@H](O)[C@@H]1OP(=O)(O)O` [acetyl-CoA], the “microsomal acyltransferase assay, ESI-MS quantification of sn-3 acyl TAG” value ([1,2-13C] labelled compound) was “higher rates of production formation were always achieved with acetyl-CoA compared with butyryl- or hexanoyl-CoA”.

Regarding `CCCC(=O)SCCNC(=O)CCNC(=O)[C@H](O)C(C)(C)COP(=O)(O)OP(=O)(O)OC[C@H]1O[C@@H](n2cnc3c(N)ncnc32)[C@H](O)[C@@H]1OP(=O)(O)O` [butyryl-CoA], the “microsomal acyltransferase assay, ESI-MS quantification of sn-3 acyl TAG” value (unlabelled) was “Reaction rates with butyryl-CoA and hexanoyl-CoA were relatively similar to one another”.
